Measurements from patent US8969361B2, “Cyclopropanecarboxylate esters of purine analogues” (Annji Pharmaceutical Co., Ltd., priority 2012, dated 2015).
≈ marks a conversion by molar mass, not a printed value. Read-outs that look alike come from different tables or passages of the source.

Experiments:
[1] = Hydrolytic stability in buffer solutions of various pH (HPLC); assay type: physicochemical; settings: phosphate-buffered solution, read-out: half life value (T1/2), hydrolytic stability (converted)
From the text: Hydrochloric acid of 0.1 N was used for pH 1 solution. Samples were repeatedly, manually injected onto HPLC at specific time intervals at room temperature. The peak areas of the compounds were monitored by UV detection. […] The “half life value, T1/2,” means the time required for one-half of the total amount of a compound in a solution to be degraded by hydrolysis processes when the rate of removal is nearly exponential. […] A first order calculation was used to determine the rate constant for each buffer on the loss of peak area over time.

Vero cells = assay: Toxicity to Vero cells; assay type: cell-based
[2] = Aqueous solubility (HPLC); assay type: physicochemical; settings: thermodynamic from solid, water
Description: The solubility experiment procedure was modified due to chemical stabilities. Briefly, an excess of a test compound was added 0.5 mL of water in an one mL of vial, pre-equilibrated, and then sonicated at 23° C. for 3 min. Aliquots were filtered and analyzed for drug contents. The concentration of each compound was determined by HPCL, at λ=254 nm, 23° C. The aliquot containing the analyte was diluted 100× due to the detection limit of the instrument.

HSV-1 [3] = assay: Herpetic keratitis in mice with cornea inoculated by HSV-1 (eye-drops); assay type: in vivo, Balb/c mice; settings: eye-drops 0.34% or 0.2% w/v in saline, 3 times a day; for corneal cloudiness, vehicle-treated group versus treated group: day-14; for severity of ocular disease symptoms (corneal clouding, stromal keratitis, blepharitis): day-21
Description: The effect of Compound 3 on herpetic keratitis was investigated in mice with cornea inoculated by HSV-1. Balb/c mice (eight weeks old, 25 g body weight) were anesthetized with isoflurane, and epithelium of both right and left corneas lightly scratched in a cross-hatch pattern (four horizontal and four vertical scratches) with a 26-gauge needle under a microscope. The mouse cornea was inoculated with 5 μL of HSV-1 suspension containing 2.5×10^6 plaque-forming units (PFU), or saline for control. After the inoculations, mice were assigned randomly to treatment groups (4˜5 mice per group), with both eyes treated with Compound 3 or ganciclovir or vehicle (saline) after lightly anaesthetized. Eight hours after HSV-1 inoculation, 1 drop (10 μl) of 0.34% or 0.2% w/v solution of compound 3 or ganciclovir in saline with anti-fungi agent (0.05 w/v amphotericin-B) was applied to each eye daily, 3 times a day. The keratitis was graded, recorded and scored daily for 21 days, and the eyes were examined with a microscopic camera at frequent intervals.

HSV-1 [4] = assay: Attenuation of HSV-1 induced cytopathic effects on Vero cells; assay type: cell-based; settings: HSV-1 at 10^-4 titration, treated 4 days, different concentrations
Description: Human epithelial (HEp-2) cells were cultured in MEM supplemented with 10% fetal calf serum and 10% heat activated newborn calf serum. Vero cells were cultured in RPMI-1640 and 10% heat activated newborn calf serum. Penicillin (1000 I.U./ml), streptomycin (100 μg/ml), and bicarbonate buffer were present in the medium, and cells were maintained at 37° C., 5% CO2, humidified atmosphere, and subcultured 2˜3 times a week.
The antiviral activity of Compound 3 was determined by evaluating the attenuation in HSV-1 induced cytopathic effects on Vero cells. Vero cells (10,000 cells/well) in a 96-well culture plate were infected with an increasingly diluted HSV-1 virus solution (10^−3 to 10^−5) in L15 medium. After 2 h incubation the unadsorbed virus was removed, the cell monolayer was washed with PBS. […] Every 24 hr the cytopathic effects were observed and photographed under microscope (FIG. 2). Anti-HSV-1 activity was determined by inhibition of cytopathic effect as compared with control. The cytopathic effects effects after HSV-1 propagation HSV-1 between Vero cells were quantified in terms of 50% tissue culture infective dose (TCID50, which was used to determine the infectious titer of HSV-1 which can cause cytopathic effects in culture).

[5] = 23° C., sonicated 3 min, read-out: aqueous solubility

SMILES	half-life at 1 mg/mL ([1]; pH 7.4, 40° C.)	solubility at 3 min [2, 5]	also measured
CNC1(C(=O)OCC(CO)OCn2cnc3c(=O)[nH]c(N)nc32)CC1 (stereo not drawn) [Compound 4, 1-Methylamino-cyclopropanecarboxylic acid 2-(2-amino-6-oxo-6-dihydro-purin-9-ylmethoxy)-3-hydroxypropyl ester]	–	227 mg/mL (≈ 644 mM)	–
Nc1nc2c(ncn2COC(CO)COC(=O)C2(N)CC2c2ccc(Br)cc2)c(=O)[nH]1 (stereo not drawn) [Compound 5, 1-Amino-2-(4-bromo-phenyl)-cyclopropanecarboxylic acid 2-(2-amino-6-oxo-1,6-dihydro-purin-9-ylmethoxy)-3-hydroxypropyl ester]	85 h	155 mg/mL (≈ 314 mM)	–
CC1CC1(N)C(=O)OCC(CO)OCn1cnc2c(=O)[nH]c(N)nc21 (stereo not drawn) [Compound 8, 1-Amino-2-methyl-cyclopropanecarboxylic acid 2-(2-amino-6-oxo-1,6-dihydro-purin-9-ylmethoxy)-3-hydroxypropyl ester]	58 h	–	–
Nc1nc2c(ncn2COC(CO)COC(=O)C2(N)CC2c2ccco2)c(=O)[nH]1 (stereo not drawn) [Compound 10, 1-Amino-2-furan-2-yl-cyclopropanecarboxylic acid 2-(2-amino-6-oxo-1,6-dihydro-purin-9-ylmethoxy)-3-hydroxypropyl ester]	29 h	260 mg/mL (≈ 643 mM)	–
Nc1nc2c(ncn2COC(CO)COC(=O)C2(N)CC2c2ccccn2)c(=O)[nH]1 (stereo not drawn) [Compound 11, 1-Amino-2-pyridin-2-yl-cyclopropanecarboxylic acid 2-(2-amino-6-oxo-1,6-dihydro-purin-9-ylmethoxy)-3-hydroxypropyl ester]	43 h	253 mg/mL (≈ 609 mM)	–
Nc1nc(O)c2ncn(COC(CO)CO)c2n1 [ganciclovir, reference compound]	–	–	toxicity to Vero cells (Vero cells; concentrations used in the antiviral test): nontoxic to Vero cells; solubility at 3 min ([2]; 23 °C): 2.6 mg/mL (≈ 10.2 mM); corneal cloudiness, vehicle-treated group versus treated group (HSV-1 [3]): much more significant; severity of ocular disease symptoms (corneal clouding, stromal keratitis, blepharitis) (HSV-1 [3]): reduced the severities in stromal keratitia and corneal clouding dramatically, but blephartitis still existed

Further lines, with some results ahead:

half-life at 1 mg/mL ([1]; pH 7.4, 40° C.)	solubility at 3 min [2, 5]	SMILES	also measured
53 h	180 mg/mL (≈ 532 mM)	Nc1nc2c(ncn2COC(CO)COC(=O)C2(N)CC2)c(=O)[nH]1 (stereo not drawn) [Compound 3, 1-amino-cyclopropanecarboxylic acid 2-(2-amino-6-oxo-1,6-dihydro-purin-9-ylmethoxy)-3-hydroxypropyl ester]	melting point: > 300 °C; half-life at 1 mg/mL ([1]; acidic solution (pH 4), 40° C.): > 300 h; toxicity to Vero cells (Vero cells): nontoxic to Vero cells; corneal cloudiness, vehicle-treated group versus treated group (HSV-1 [3]): much more significant; severity of ocular disease symptoms (corneal clouding, stromal keratitis, blepharitis) (HSV-1 [3]): eliminated the extra-ocular keratitis morphologies almost entirely; cytopathogenic effects of HSV-1 on Vero cells (morphological evaluation) (HSV-1 [4]): reduced the cytopathogenic effects of HSV-1 on Vero cells in a concentration-dependent manner
75 h	170 mg/mL (≈ 410 mM)	Nc1nc2c(ncn2COC(CO)COC(=O)C2(N)CC2c2ccccc2)c(=O)[nH]1 (stereo not drawn) [Compound 6, 1-Amino-2-phenyl-cyclopropanecarboxylic acid 2-(2-amino-6-oxo-1,6-dihydro-purin-9-ylmethoxy)-3-hydroxypropyl ester]	–
68 h	213 mg/mL (≈ 581 mM)	CC1(C)CC1(N)C(=O)OCC(CO)OCn1cnc2c(=O)[nH]c(N)nc21 (stereo not drawn) [Compound 7, 1-Amino-2,2-dimethyl-cyclopropanecarboxylic acid 2-(2-amino-6-oxo-1,6-dihydro-purin-9-ylmethoxy)-3-hydroxypropyl ester]	melting point: > 300 °C
33 h	261 mg/mL (≈ 642 mM)	Nc1nc2c(ncn2COC(CO)COC(=O)C2(N)CC2C(F)(F)F)c(=O)[nH]1 (stereo not drawn) [Compound 9, 1-Amino-2-trifluoromethyl-cyclopropanecarboxylic acid 2-(2-amino-6-oxo-1,6-dihydro-purin-9-ylmethoxy)-3-hydroxypropyl ester]	–
